What was measured:
TNF-α = TNF-α level in Lipopolysaccharide (LPS) treated mice; type: in vivo; settings: compared to the control Lipopolysaccharide (LPS) group
COX-1 enzyme = COX-1 enzyme (Homo sapiens, UniProt P23219); experiment: COX-1 enzyme inhibition; type: biochemical; settings: FIG. 3A
COX-2 enzyme = biological target: T1, COX-2 enzyme (Homo sapiens, UniProt P35354); experiment: COX-2 enzyme inhibition; type: biochemical; settings: FIG. 3A
T1 sequence (P35354 18-604): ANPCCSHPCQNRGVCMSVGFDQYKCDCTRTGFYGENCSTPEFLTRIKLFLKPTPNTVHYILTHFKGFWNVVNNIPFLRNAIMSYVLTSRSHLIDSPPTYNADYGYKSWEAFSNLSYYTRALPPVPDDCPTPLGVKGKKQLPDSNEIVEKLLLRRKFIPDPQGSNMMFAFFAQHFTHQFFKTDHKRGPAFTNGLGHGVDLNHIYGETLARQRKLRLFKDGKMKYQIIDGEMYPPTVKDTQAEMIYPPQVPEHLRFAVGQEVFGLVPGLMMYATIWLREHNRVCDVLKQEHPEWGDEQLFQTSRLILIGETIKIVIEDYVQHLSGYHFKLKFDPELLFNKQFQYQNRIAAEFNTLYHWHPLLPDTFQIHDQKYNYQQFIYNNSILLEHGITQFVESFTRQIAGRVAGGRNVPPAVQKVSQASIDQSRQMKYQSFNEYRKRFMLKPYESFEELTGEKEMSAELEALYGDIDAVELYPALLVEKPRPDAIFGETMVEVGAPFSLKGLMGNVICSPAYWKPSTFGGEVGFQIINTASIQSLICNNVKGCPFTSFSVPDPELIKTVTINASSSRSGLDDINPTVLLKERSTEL

mice = experiment: Disease Activity Index in DSS mice, 21 day study; type: in vivo; settings: end of study period of 21 days, compared with the vehicle DSS group, P<0.04
IL-6 = IL-6 level in LPS treated mice; type: in vivo; settings: compared to the control LPS group

COX-1 enzyme, sequence (P23219 24-599): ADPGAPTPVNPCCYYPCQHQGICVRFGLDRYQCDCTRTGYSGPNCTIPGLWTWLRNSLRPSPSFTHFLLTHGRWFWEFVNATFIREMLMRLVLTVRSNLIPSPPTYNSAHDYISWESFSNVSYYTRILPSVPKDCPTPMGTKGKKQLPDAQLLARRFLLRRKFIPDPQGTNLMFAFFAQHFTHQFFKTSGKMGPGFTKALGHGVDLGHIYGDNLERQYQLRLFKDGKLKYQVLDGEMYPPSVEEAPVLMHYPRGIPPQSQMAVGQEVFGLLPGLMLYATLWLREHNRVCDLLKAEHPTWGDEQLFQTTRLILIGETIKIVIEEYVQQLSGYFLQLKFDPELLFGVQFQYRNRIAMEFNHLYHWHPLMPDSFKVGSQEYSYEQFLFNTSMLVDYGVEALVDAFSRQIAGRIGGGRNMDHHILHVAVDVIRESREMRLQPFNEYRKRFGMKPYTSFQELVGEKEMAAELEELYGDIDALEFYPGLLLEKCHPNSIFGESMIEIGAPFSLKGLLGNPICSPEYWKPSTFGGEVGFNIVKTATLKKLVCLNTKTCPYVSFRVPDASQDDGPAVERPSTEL

Row | Structure (SMILES) | decrease of TNF-α (TNF-α) [%] | reduction of COX-1 enzyme activity (COX-1 enzyme) [%] | reduction of COX-2 enzyme activity (COX-2 enzyme) [%] | decrease in Disease Activity Index (mice) [%] | decrease of IL-6 (IL-6) [%]
1 | COc1cc(C2SCCCS2)ccc1OC(=O)/C=C/c1ccccc1 [compound 2, 4-(1,3-dithian-2-yl)-2-methoxyphenyl cinnamate] | 26 |  |  |  | 
2 | CC/C=C\CC(=O)Oc1ccc(Br)cc1C1SCCCS1 [compound 1, (Z)-4-bromo-2-(1,3-dithian-2-yl)phenyl hex-3-enoate] | 53 | 38 | 45 | 23 | 19
